Source: ChEMBL document CHEMBL4619774 (J Med Chem, 2020)

What was measured:
Coagulation factor XI [1] = target: T1, Coagulation factor XI (Homo sapiens, UniProt P03951); test: Inhibition of human F11a using D-Leu-Pro-Arg*Rh110-D-Pro as substrate preincubated for 60 mins followed by substrate addition and measured after 60 mins by fluorescence assay
Plasma kallikrein = Plasma kallikrein (Homo sapiens, UniProt P03952); format: single protein
Coagulation factor XI [2] = target: T1, Coagulation factor XI; test: Inhibition of […] human plasma F11a catalytic domain expressed in Escherichia coli strain BL21(DE3) using D-Leu-Pro-Arg*Rh110-D-Pro as substrate preincubated for 60 mins followed by substrate addition and measured after 60 mins by fluorescence assay
Coagulation factor VII = target: T2, Coagulation factor VII (Homo sapiens, UniProt P08709); format: single protein
T2 sequence (P08709 whole entry): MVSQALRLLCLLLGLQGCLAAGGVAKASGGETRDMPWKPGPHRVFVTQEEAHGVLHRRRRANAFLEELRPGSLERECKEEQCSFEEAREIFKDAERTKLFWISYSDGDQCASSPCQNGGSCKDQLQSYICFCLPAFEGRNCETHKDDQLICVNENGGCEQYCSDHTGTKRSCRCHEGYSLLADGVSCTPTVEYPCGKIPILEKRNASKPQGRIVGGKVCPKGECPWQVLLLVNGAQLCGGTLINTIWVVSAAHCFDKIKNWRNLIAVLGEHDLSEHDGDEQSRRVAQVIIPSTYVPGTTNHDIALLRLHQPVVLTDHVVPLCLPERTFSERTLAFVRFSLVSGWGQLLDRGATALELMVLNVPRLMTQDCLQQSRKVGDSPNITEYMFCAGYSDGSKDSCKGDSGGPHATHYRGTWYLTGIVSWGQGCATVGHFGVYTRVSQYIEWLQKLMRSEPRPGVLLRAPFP

Coagulation factor IX = Coagulation factor IX (Homo sapiens, UniProt P00740); format: single protein
Sequence of Coagulation factor IX (P00740 47-191 limits assumed): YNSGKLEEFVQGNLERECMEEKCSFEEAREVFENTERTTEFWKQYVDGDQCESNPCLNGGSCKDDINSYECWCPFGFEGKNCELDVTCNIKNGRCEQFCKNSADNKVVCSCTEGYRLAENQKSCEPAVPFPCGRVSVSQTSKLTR
Sequence of Coagulation factor IX (P00740 227-461 limits assumed): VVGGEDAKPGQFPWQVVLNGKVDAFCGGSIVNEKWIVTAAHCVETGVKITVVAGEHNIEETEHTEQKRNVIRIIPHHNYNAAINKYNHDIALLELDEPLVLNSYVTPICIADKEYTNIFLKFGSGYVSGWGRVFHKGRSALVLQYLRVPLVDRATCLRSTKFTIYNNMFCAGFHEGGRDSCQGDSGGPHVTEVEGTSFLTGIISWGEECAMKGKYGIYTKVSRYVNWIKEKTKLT

Coagulation factor X = Coagulation factor X (Homo sapiens, UniProt P00742); format: single protein
Sequence of Coagulation factor X (P00742 41-179 limits assumed): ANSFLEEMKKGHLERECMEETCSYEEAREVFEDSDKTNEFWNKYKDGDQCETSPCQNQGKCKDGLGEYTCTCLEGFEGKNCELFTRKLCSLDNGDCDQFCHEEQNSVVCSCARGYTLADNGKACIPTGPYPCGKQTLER
Sequence of Coagulation factor X (P00742 235-488 limits assumed): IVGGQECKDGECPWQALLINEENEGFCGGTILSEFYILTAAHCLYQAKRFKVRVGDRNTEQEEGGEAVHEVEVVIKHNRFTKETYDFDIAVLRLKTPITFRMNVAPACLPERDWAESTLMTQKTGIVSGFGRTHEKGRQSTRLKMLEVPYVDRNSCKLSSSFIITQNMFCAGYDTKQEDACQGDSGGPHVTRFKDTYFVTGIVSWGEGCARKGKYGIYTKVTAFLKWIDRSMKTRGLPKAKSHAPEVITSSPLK

Prothrombin = Prothrombin (Homo sapiens, UniProt P00734); format: single protein
[3] = target: Tissue-type plasminogen activator (Homo sapiens, UniProt P00750); format: single protein
Sequence of Tissue-type plasminogen activator (P00750 whole entry): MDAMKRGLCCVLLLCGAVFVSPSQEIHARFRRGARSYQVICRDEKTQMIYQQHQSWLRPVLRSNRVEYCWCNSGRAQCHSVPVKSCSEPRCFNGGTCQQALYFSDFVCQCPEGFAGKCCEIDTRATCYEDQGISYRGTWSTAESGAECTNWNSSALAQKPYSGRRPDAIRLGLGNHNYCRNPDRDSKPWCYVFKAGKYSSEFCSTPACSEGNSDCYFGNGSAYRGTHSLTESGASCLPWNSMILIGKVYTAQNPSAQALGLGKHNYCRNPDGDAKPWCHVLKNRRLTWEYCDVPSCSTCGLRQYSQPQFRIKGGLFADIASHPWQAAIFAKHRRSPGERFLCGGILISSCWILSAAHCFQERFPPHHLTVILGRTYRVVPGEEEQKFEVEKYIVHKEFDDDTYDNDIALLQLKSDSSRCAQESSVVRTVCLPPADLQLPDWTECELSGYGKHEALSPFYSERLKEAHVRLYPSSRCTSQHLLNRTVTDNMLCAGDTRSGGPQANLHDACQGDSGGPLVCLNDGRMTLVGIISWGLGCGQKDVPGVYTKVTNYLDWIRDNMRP

[4] = target: Prostaglandin G/H synthase 1 (Homo sapiens, UniProt P23219); test: Inhibition of COX1 (unknown origin)
Sequence of Prostaglandin G/H synthase 1 (P23219 whole entry): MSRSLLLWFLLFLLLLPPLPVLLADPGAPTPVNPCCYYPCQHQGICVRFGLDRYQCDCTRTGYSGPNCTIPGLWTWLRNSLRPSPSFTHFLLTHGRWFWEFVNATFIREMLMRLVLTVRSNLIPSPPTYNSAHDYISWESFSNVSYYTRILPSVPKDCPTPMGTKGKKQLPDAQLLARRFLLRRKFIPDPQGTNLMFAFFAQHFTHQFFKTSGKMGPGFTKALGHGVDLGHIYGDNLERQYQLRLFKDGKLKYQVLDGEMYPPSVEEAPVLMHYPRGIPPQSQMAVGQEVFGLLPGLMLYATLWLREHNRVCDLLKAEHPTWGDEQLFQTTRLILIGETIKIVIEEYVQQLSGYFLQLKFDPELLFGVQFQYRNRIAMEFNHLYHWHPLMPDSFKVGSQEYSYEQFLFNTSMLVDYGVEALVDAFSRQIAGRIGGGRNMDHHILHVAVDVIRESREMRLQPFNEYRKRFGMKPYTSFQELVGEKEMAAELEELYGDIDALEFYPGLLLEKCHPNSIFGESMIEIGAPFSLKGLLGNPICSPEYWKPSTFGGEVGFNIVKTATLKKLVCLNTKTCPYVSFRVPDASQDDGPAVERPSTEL

[5] = target: 3',5'-cyclic-AMP phosphodiesterase 4D (Homo sapiens, UniProt Q08499); test: Inhibition of PDE4D (unknown origin)
Sequence of 3',5'-cyclic-AMP phosphodiesterase 4D (Q08499 whole entry): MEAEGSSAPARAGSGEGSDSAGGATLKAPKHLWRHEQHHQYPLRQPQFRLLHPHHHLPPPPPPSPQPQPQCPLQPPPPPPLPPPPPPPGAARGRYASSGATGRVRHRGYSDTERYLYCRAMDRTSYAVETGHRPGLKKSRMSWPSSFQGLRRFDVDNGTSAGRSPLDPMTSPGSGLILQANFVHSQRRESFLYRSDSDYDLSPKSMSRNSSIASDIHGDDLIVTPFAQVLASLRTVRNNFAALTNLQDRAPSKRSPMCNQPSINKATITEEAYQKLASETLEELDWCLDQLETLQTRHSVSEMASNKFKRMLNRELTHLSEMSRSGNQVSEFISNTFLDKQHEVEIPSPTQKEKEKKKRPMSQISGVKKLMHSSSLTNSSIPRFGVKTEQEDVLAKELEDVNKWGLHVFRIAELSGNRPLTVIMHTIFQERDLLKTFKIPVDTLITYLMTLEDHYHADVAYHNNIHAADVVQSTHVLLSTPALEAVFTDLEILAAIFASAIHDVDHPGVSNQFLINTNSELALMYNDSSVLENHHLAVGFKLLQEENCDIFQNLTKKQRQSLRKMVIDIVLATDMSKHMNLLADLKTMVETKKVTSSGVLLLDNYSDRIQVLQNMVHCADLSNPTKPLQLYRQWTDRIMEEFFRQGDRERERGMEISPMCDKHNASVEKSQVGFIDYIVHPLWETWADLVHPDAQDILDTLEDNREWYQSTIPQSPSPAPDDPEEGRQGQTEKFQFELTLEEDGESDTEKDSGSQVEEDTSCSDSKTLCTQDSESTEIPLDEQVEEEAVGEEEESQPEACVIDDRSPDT

[6] = target: Urokinase-type plasminogen activator (Homo sapiens, UniProt P00749); format: single protein
[7] = Volume of distribution at steady state in C57BL/6 mouse at 0.4 mg/kg, iv bolus injection or 3 mg/kg, po by LC-MS/MS analysis; format: ADME, organism-based; settings: in vivo, read-out: Vdss
[8] = Terminal half life in C57BL/6 mouse at 0.4 mg/kg, iv bolus injection or 3 mg/kg, po by LC-MS/MS analysis; format: ADME, organism-based; settings: in vivo, read-out: beta t1/2 (converted)
[9] = Dose normalized AUC in C57BL/6 mouse at 3 mg/kg, po by LC-MS/MS analysis; format: ADME, organism-based; settings: in vivo
[10] = Dose normalized Cmax in C57BL/6 mouse at 0.4 mg/kg, iv bolus injection or 3 mg/kg, po by LC-MS/MS analysis; format: ADME, organism-based; settings: in vivo
[11] = Dose normalized AUC in C57BL/6 mouse at 100 mg/kg, po by LC-MS/MS analysis; format: ADME, organism-based; settings: in vivo
[12] = Oral bioavailability in C57BL/6 mouse at 100 mg/kg by LC-MS/MS analysis; format: ADME, organism-based; settings: in vivo
[13] = Dose normalized Cmax in C57BL/6 mouse at 100 mg/kg, po by LC-MS/MS analysis; format: ADME, organism-based; settings: in vivo
[14] = Tmax in C57BL/6 mouse at 100 mg/kg, po by LC-MS/MS analysis; format: ADME, organism-based; settings: in vivo
[15] = Dose normalized Cmax in Sprague-Dawley rat at 30 mg/kg, po via gavage by HPLC-MS/MS analysis; format: ADME, organism-based; settings: in vivo
[16] = Dose normalized AUC (0 to t) in Sprague-Dawley rat at 3 mg/kg, po via gavage by HPLC-MS/MS analysis; format: ADME, organism-based; settings: in vivo
[17] = Dose normalized AUC (0 to t) in Sprague-Dawley rat at 30 mg/kg, po via gavage by HPLC-MS/MS analysis; format: ADME, organism-based; settings: in vivo
[18] = Dose normalized AUC (0 to t) in beagle dog at 75 mg/kg, po via gavage by HPLC-MS/MS analysis; format: ADME, organism-based, Canis lupus familiaris; settings: in vivo
[19] = Oral bioavailability in beagle dog at 75 mg/kg via gavage by HPLC-MS/MS analysis; format: ADME, organism-based, Canis lupus familiaris; settings: in vivo
[20] = Clearance in Sprague-Dawley rat at 1 mg/kg, iv by HPLC-MS/MS analysis; format: ADME, organism-based; settings: in vivo
[21] = Volume of distribution at steady state in Sprague-Dawley rat at 1 mg/kg, iv administered as bolus dose by HPLC-MS/MS analysis; format: ADME, organism-based; settings: in vivo, read-out: Vdss
[22] = AUC (0 to t) in beagle dog at 1 mg/kg, iv by HPLC-MS/MS analysis; format: ADME, organism-based, Canis lupus familiaris; settings: in vivo
[23] = target: T3, Peroxisome proliferator-activated receptor gamma (Homo sapiens) (UniProt P37231); test: Binding affinity to PPARgamma (unknown origin) at 10 uM
T3 sequence (whole entry): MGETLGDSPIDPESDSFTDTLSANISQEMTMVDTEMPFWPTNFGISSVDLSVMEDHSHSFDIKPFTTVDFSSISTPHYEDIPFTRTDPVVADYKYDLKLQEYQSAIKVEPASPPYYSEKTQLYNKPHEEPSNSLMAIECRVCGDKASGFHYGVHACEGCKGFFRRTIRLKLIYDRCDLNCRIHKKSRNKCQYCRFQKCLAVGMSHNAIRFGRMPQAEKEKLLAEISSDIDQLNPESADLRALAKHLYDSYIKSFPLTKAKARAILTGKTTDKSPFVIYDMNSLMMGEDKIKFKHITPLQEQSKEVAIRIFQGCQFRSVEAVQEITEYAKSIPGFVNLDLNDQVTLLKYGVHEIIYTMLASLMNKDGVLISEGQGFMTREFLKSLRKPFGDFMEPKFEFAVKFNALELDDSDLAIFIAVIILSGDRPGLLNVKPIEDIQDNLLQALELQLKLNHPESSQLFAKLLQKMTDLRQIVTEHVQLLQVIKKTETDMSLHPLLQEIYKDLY

[24] = Efflux ratio of apparent permeability from basolateral to apical side over apical to basolateral side in MDCK-MDR1 cells; format: ADME, cell-based, Canis lupus familiaris; settings: dog
Plasma [25] = test: Anticoagulant activity in human plasma assessed as concentration required to double the activated partial thromboplastin time incubated for 3 mins followed by calcium chloride addition by aPTT-s reagent based automated coagulometric method; format: functional
Plasma [26] = test: Effect on coagulation in human plasma assessed as concentration required to double the prothrombin time by thromboplastin-DS reagent based automated coagulometric method; format: ADME, cell-free

T1 sequence (P03951 19-387 limits assumed): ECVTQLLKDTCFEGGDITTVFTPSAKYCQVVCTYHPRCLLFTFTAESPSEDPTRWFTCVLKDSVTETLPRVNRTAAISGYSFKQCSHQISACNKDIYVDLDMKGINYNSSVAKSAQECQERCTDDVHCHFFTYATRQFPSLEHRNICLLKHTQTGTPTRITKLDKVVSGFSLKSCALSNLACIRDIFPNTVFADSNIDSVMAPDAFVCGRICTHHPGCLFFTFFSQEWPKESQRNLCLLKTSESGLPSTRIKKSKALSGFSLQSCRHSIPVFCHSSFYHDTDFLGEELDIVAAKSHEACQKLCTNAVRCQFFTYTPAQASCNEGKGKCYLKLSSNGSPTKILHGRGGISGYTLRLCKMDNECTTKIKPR
T1 sequence (P03951 388-625 limits assumed): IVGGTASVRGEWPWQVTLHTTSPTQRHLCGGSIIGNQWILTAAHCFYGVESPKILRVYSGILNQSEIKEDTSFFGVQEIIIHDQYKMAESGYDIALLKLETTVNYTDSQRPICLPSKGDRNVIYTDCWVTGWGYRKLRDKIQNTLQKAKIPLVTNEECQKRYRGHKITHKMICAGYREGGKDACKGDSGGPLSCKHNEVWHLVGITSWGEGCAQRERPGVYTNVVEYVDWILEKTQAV
Sequence of Plasma kallikrein (P03952 20-390 limits assumed): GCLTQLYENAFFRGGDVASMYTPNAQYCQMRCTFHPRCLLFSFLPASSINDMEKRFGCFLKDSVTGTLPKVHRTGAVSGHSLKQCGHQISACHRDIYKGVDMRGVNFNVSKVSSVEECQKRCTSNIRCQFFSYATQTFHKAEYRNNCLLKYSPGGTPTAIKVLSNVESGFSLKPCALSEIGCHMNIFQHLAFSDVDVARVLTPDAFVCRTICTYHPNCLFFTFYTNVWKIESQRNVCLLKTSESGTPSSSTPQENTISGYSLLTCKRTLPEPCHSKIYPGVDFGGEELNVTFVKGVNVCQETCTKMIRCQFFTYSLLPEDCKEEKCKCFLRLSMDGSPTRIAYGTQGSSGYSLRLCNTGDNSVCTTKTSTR
Sequence of Plasma kallikrein (P03952 391-638 limits assumed): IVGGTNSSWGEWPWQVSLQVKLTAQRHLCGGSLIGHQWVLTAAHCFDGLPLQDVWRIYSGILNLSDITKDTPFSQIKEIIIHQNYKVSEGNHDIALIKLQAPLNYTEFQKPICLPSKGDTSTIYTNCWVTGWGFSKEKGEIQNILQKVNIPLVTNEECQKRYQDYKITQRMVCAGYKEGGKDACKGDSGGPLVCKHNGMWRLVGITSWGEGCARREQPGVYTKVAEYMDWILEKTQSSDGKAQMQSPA

- IC50 (Coagulation factor XI [1]): 0.0004 µM
- IC50 (Plasma kallikrein): 0.001 µM
- IC50 (Coagulation factor XI [2]): 0.01 µM
- IC50 (Coagulation factor VII): 3.65 µM
- IC50 (Coagulation factor IX): 1.92 µM
- IC50 (Coagulation factor X): 1.05 µM
- IC50 (Prothrombin): 2.57 µM
- IC50 [3]: 0.25 µM
- IC50 [4]: 4.3 µM
- IC50 [5]: 2.4 µM
- IC50 [6]: 0.17 µM
- Vd [7]: 0.57 L/kg
- half-life [8]: 3.73 h
- AUC/dose [9]: 1297 nM·h
- Cmax/dose [10]: 494 nM
- AUC/dose [11]: 260215 nM·h
- bioavailability [12]: 100%
- Cmax/dose [13]: 26795 nM
- Tmax [14]: 4 h
- Cmax/dose [15]: 143 nM
- AUCt/dose [16]: 382 nM·h
- AUCt/dose [17]: 621 nM·h
- AUCt/dose [18]: 2200 nM·h
- bioavailability [19]: 21%
- clearance [20]: 9.4 mL/min/kg
- Vd [21]: 1.3 L/kg
- AUC(0-t) [22]: 10.7 µM·h
- Activity [23]: 65%
- efflux ratio [24]: 21.5
- 2PT (Plasma [26]): 28.7 µM
SMILES: CC(C)c1cc(-c2ccc3c(c2)[C@H](N)CO3)cc([C@H](O)Cn2ccc3cccc(C(=O)O)c32)c1
- 2aPTT (Plasma [25]): 1.3 µM
